Experimental data as given in PubChem BioAssay AID179 (DTP/NCI, 2004).
Several values for one entry are separate records, joined by “and”; a condition that tells them apart may be missing. Equal entries are not always repeated. Activity calls are given as the source filed them.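 Rule for the calls: active = compounds giving half or more protection of infected cells from virus-caused growth loss, again on retest; inactive = the rest.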

Tested on: CEM cells HIV-1 protection, formazan growth assay
Experiment: NCI AIDS Antiviral Assay
Settings: for IC50: measured here: growth of uninfected CEM cells
Summary of the method: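 Five concentrations of each compound were applied to infected and uninfected human CEM cells. Protection from HIV-1 was judged from growth measured with a soluble formazan assay.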

| Compound | EC50 [µM] | IC50 | outcome |
| --- | --- | --- | --- |
| CN1c2ccccc2N(C(=O)c2ccc([N+](=O)[O-])cc2)C(CC(=O)O)c2cccn21 (configuration not stated) | > 617 | 240 µM | – |
| CC1(C)COC(c2ccc(CC(O)c3ccccc3)cc2)=N1 (configuration not stated) | > 200 | 41.7 µM | – |
| c1csc(-c2csc(-c3ccsc3)c2)c1 | > 200 | > 200 µM | – |
| COc1cc(/C=N/NC2=NCCCCN2)ccc1O | > 200 | > 200 µM | – |
| O=C1Nc2ccccc2C12CCCC2 | – | – | inactive |
| CSc1cc(-c2ccccn2)nc(-c2ccccn2)c1.CSc1cc(-c2ccccn2)nc(-c2ccccn2)c1.[Ni+2].[O-][Cl+3]([O-])([O-])[O-] | > 200 | > 200 µM | – |
| Cc1ccccc1NC(=O)C(=O)Cc1nc2ccccc2s1 | > 12 | > 12 µM | – |
| CCN(CC)CCNc1ccc(C)c2sc3ccccc3c(=O)c12 | > 200 | 11 µM | – |
| CCOC(=O)C1CCn2c(nc3c2c(=O)n(C)c(=O)n3C)S1 (configuration not stated) | – | – | inactive |
| O=C1CCC2(C=Nc3ccccc32)C2Cc3ccccc3N12 (configuration not stated) | > 13.2 | > 13.2 µM | – |
| COc1ccc(C2C(Cl)C(=O)N2NC(=O)c2ccccc2O)cc1 (configuration not stated) | > 145 | > 145 µM | – |
| CCCC(=O)Oc1ccc2c(C)cc(=O)oc2c1 | > 200 | > 200 µM | – |
| COc1cccc(N2C(=O)[C@H]3[C@H]4CC(C(C)(C)C)CC[C@H]4c4c([nH]c5ccccc45)[C@H]3C2=O)c1 (some centres not stated) | 18.2 | 26.9 µM | – |
| COc1ccc(CCn2ccc(C)n2)c(OC)c1 | > 200 | > 200 µM | – |
| O/C(=C\c1nc2ccccc2nc1/C=C(\O)c1ccc(Cl)cc1)c1ccccc1 | > 200 | 6.46 µM | – |
| NCc1ccc(O)c(O)c1O | > 200 | 9.33 µM | – |
| COc1cc([C@H]2Oc3c(OC)cc(/C=C/C(=O)O)cc3[C@@H]2C(=O)O)ccc1O | 120 | > 200 µM | – |
| N.N.N.N.N.O=S(=O)([O-])S(=O)(=O)[O-].[Co+3] | > 42.7 | > 42.7 µM | – |
| CCCCCC(=O)c1ccc2[nH]c3c(C)cc([N+](=O)[O-])c(C)c3c2c1 | > 4.27 | > 4.27 µM | – |
| O=C1CC2c3c(OCc4ccccc4)cc(OCc4ccccc4)cc3OC2O1 (configuration not stated) | > 25.7 | > 25.7 µM | – |
| Cn1c2ccccc2c2nc3ccccc3nc21 | > 22.4 | > 22.4 µM | – |
| O=C(CC(NC(=O)OCc1ccccc1)C(=O)NC1Cc2ccccc2C1=O)OCc1ccccc1 (configuration not stated) | > 200 | > 200 µM | – |

| Compound | EC50 [µM] | IC50 | outcome |
| --- | --- | --- | --- |
| COc1ccc(S(=O)(=O)NCCSSCCNS(=O)(=O)c2ccc(OC)cc2)cc1 | > 200 | 26.9 µM | – |
| Cc1c(OCc2cccc3ccccc23)ccc2c(=O)cc(SCCN3CCOCC3)oc12 | – | – | inactive |
| COC(=O)[C@@H]1COC(=O)N1 | > 200 | > 200 µM | – |
| C=CCn1cc(C(=O)NC(=O)NCCCCCOC(=O)CCCCCCCCCCC(=O)OCCCCCNC(=O)NC(=O)c2cn(CC=C)c(=O)n(C)c2=O)c(=O)n(C)c1=O | > 5.75 | > 5.75 µM | – |
| CCOC(=O)C1=C(C)NC(C)=C(C(=O)OCCNC(=O)c2ccc(N=[N+]=[N-])cc2)C1c1ccccc1C(F)(F)F (configuration not stated) | > 200 | 10.5 µM | – |
| O=c1c(-c2ccc(O)cc2)coc2c(O)c(O)ccc12 | > 200 | 28.8 µM | – |
| CCCc1cc(=O)oc2c3c(c4c(c12)OC(C)(C)C=C4)O[C@H](C)[C@@H](C)[C@@H]3OC(C)=O | 1.7 | 26.9 µM | – |
| Clc1ccc(CSc2nnc(SCc3ccc(Cl)c(Cl)c3)c3[nH]cnc23)cc1Cl | > 200 | 12.6 µM | – |
| CC1=Nc2ccccc2/C1=C\c1c(C)[nH]c2ccccc12 | 0.0631 | 11.5 µM | – |
| CC/C(=C(\C#N)c1ccc(OCCN(CC)CC)cc1)c1ccc(OCCN(CC)CC)cc1 | > 200 | 1.86 µM | – |
| COc1cccc(N(CN2C(=O)CCC2C(=O)O)C(C)=O)c1 (configuration not stated) | – | – | inactive |
| Cc1ccc(Nc2nc3[nH]ccc3c(=O)[nH]2)cc1 | > 200 | > 200 µM | – |
| CC1(C)OC(=O)C(=Cc2ccc(C#N)cc2)C(=O)O1 | > 513 | 2.29 µM | – |
| COC(=O)C1Cc2c([nH]c3ccccc23)C(c2ccccc2O)N1Cc1ccccc1 (configuration not stated) | – | – | inactive |
| CC(C)C(Nc1c2ccccc2[n+](C)c2ccccc12)C(=O)O (configuration not stated) | – | – | inactive |
| COc1ccc(-c2c(C(C)=O)c(-c3ccccc3)n(C3OC(COC(C)=O)C(OC(C)=O)C(OC(C)=O)C3OC(C)=O)c(=S)c2C#N)cc1O (configuration not stated) | > 200 | 24.5 µM and 38.9 µM | – |
| OCC1=C[C@@H](O)[C@@H]2C=CO[C@@H](OC3OC(CO)C(O)C(O)C3O)[C@H]12 (some centres not stated) | > 724 | > 724 µM | – |
| c1ccc2c(c1)[nH]c1c2c(N2CCOCC2)nn2cnnc12 | > 200 | > 200 µM | – |
| Nc1nc(Cl)cc(OCC2(CO)CCC2)n1 | > 200 | 135 µM | – |
| O=[N+]([O-])c1ccc(/C=N/Nc2nnc3c4ccccc4c4ncccc4c3n2)o1 | > 100 | > 100 µM | – |
| CCOC(=O)/C(=C\c1cccc(Br)c1)C(C)=O | > 229 | 47.9 µM | – |
| C[N+](C)(C)CC1CCC/C1=N\OC(=O)c1ccccc1 (configuration not stated) | > 617 | > 617 µM | – |
